{
  "source": "patent US20090143279A1",
  "about": "(priority 2007, published 2009)",
  "key": {"mtOXPHOS transcripts": {"system": "mtOXPHOS transcripts", "type": "cell-based, mouse"}, "OXPHOS gene expression": {"system": "OXPHOS gene expression", "type": "cell-based, mouse", "conditions": "for GE-HTS: Conc 20 μM; for OXPHOS expression: primary screen, in words; for dose at which OXPHOS expression increased: retest at 20 nM to 20 μM, FIG. 6a"}, "[1]": {"system": "mitochondrial membrane potential", "type": "cell-based, mouse"}, "nuOXPHOS transcripts": {"system": "nuOXPHOS transcripts", "type": "cell-based, mouse"}, "cytochrome c": {"system": "cytochrome c", "type": "cell-based, mouse"}, "[2]": {"system": "cellular dehydrogenase activity"}, "reactive oxygen species": {"system": "reactive oxygen species", "type": "cell-based, mouse", "conditions": "for ROS levels: primary screen, in words; for dose at which ROS levels decreased: retest at 20 nM to 20 μM, FIG. 6a"}, "[3]": {"conditions": "composite Z-score vs DMSO wells, Conc 20 μM"}, "[4]": {"conditions": "composite Z-score vs DMSO wells"}, "[5]": {"conditions": "composite Z-score vs DMSO, Conc 20 μM"}, "[6]": {"conditions": "composite Z-score vs mock-treated (DMSO) wells, Conc 20 μM"}, "[7]": {"conditions": "normalized composite Z-score vs mock-treated (DMSO) wells, Conc 20 μM"}, "[8]": {"conditions": "Table 7, C2C12 myotubes, 48 h, composite Z-score"}, "[9]": {"conditions": "Table 3, differentiated C2C12 myotubes, 48 h treatment, composite Z-score vs DMSO"}, "[10]": {"conditions": "Table 5, C2C12 myotubes, 48 h, composite Z-score"}},
  "note": "Structures can show the parent of a compound that is named as a salt. Where two headings read alike, the source gives them in different places.",
  "data": [
    {"compound": "CC[N+](CC)(CC)CCOc1cccc(OCC[N+](CC)(CC)CC)c1OCC[N+](CC)(CC)CC", "note": "[gallamine]", "values": [
      {"measurement": "mitoOX", "setting": "mtOXPHOS transcripts; [3]", "result": 0.843},
      {"measurement": "GE-HTS", "setting": "OXPHOS gene expression; [4]", "result": 0.057},
      {"measurement": "ΔΨm", "setting": "[1]; [3]", "result": "−0.882"},
      {"measurement": "nucOX", "setting": "nuOXPHOS transcripts; [3]", "result": "−0.292"},
      {"measurement": "cyt c", "setting": "cytochrome c", "result": 0.036},
      {"measurement": "cyt c", "setting": "cytochrome c; [3]", "result": "−0.492"},
      {"measurement": "MTT", "setting": "[2]; [3]", "result": "−1.683"},
      {"measurement": "ROS", "setting": "reactive oxygen species; [3]", "result": 1.259}
    ]},
    {"compound": "C[C@]12CCC(=O)C[C@@H]1CC[C@@H]1[C@@H]2CC[C@]2(C)C(=O)CC[C@@H]12", "note": "[5alpha-androstan-3,17-dione]", "values": [
      {"measurement": "mitoOX", "setting": "mtOXPHOS transcripts", "result": "−0.509"},
      {"measurement": "Viability", "setting": "C2C12 myotubes", "result": "−0.579"},
      {"measurement": "ΔΨm", "setting": "[1]", "result": 0.107},
      {"measurement": "nucOX", "setting": "nuOXPHOS transcripts", "result": "−0.426"},
      {"measurement": "cyt c", "setting": "cytochrome c", "result": 0.048},
      {"measurement": "MTT", "setting": "[2]", "result": "−0.601"},
      {"measurement": "ROS", "setting": "reactive oxygen species", "result": 0.649}
    ]},
    {"compound": "CCOC(=O)c1c(C)cc(OC)cc1O", "note": "[ethyl everninate]", "values": [
      {"measurement": "mitoOX", "setting": "mtOXPHOS transcripts; [5]", "result": "−0.980"},
      {"measurement": "GE-HTS", "setting": "OXPHOS gene expression; composite Z-score vs DMSO", "result": "−0.428"},
      {"measurement": "ΔΨm", "setting": "[1]; [5]", "result": "−0.860"},
      {"measurement": "nucOX", "setting": "nuOXPHOS transcripts; [5]", "result": "−0.131"},
      {"measurement": "cyt c", "setting": "cytochrome c; [5]", "result": 0.122},
      {"measurement": "MTT", "setting": "[2]; [5]", "result": "−1.302"},
      {"measurement": "ROS", "setting": "reactive oxygen species; [5]", "result": 0.125}
    ]},
    {"compound": "COC(=O)C[C@H]1C(C)(C)[C@@H](OC(C)=O)[C@@H]2CC3=C4CC(=O)O[C@@H](c5ccoc5)[C@]4(C)CC[C@@H]3[C@@]1(C)C2=O", "note": "[fissinolide]", "values": [
      {"measurement": "mitoOX", "setting": "mtOXPHOS transcripts; [6]", "result": 0.777},
      {"measurement": "Viability", "setting": "C2C12 myotubes; [6]", "result": 0.060},
      {"measurement": "GE-HTS", "setting": "OXPHOS gene expression; composite Z-score vs mock-treated (DMSO) wells", "result": 0.534},
      {"measurement": "ΔΨm", "setting": "[1]; [6]", "result": "−0.324"},
      {"measurement": "nucOX", "setting": "nuOXPHOS transcripts; [6]", "result": 0.385},
      {"measurement": "cyt c", "setting": "cytochrome c; [6]", "result": "−0.167"},
      {"measurement": "ROS", "setting": "reactive oxygen species; [6]", "result": 0.475}
    ]},
    {"compound": "Thimerosal [reference compound]", "values": [
      {"measurement": "mito-OXPHOS Z", "setting": "mtOXPHOS transcripts", "result": 10.41},
      {"measurement": "Viability", "setting": "C2C12 myotubes", "result": "−5.590"},
      {"measurement": "ΔΨm", "setting": "[1]", "result": "−3.315"},
      {"measurement": "nucOXPHOS Z", "setting": "nuOXPHOS transcripts", "result": "−1.20"},
      {"measurement": "MTT", "setting": "[2]", "result": "−6.206"},
      {"measurement": "ROS", "setting": "reactive oxygen species", "result": "−3.880"}
    ]},
    {"compound": "C=C1CCC=C(C)C(=O)CC2C(C)CC12", "note": "(stereo not drawn) [15-norcaryophyllen-3-one]", "values": [
      {"measurement": "mitoOX", "setting": "mtOXPHOS transcripts; [7]", "result": 0.137},
      {"measurement": "Viability", "setting": "C2C12 myotubes; [7]", "result": 0.557},
      {"measurement": "GE-HTS", "setting": "OXPHOS gene expression; normalized composite Z-score vs mock-treated (DMSO) wells", "result": "−0.016"},
      {"measurement": "ΔΨm", "setting": "[1]; [7]", "result": 0.034},
      {"measurement": "nucOX", "setting": "nuOXPHOS transcripts; [7]", "result": "−0.076"},
      {"measurement": "cyt c", "setting": "cytochrome c; [7]", "result": 0.656},
      {"measurement": "ROS", "setting": "reactive oxygen species; [7]", "result": "−0.667"}
    ]},
    {"compound": "COc1cc([C@@H]2c3cc4c(cc3[C@H](O)[C@H]3COC(=O)[C@H]23)OCO4)cc(OC)c1OC", "note": "[podofilox, reference compound]", "values": [
      {"measurement": "mito-OXPHOS Z", "setting": "mtOXPHOS transcripts; [8]", "result": 1.28},
      {"measurement": "GEHTS_Zscore", "setting": "OXPHOS gene expression; [9]", "result": 3.408},
      {"measurement": "OXPHOS expression", "setting": "OXPHOS gene expression", "result": "boost OXPHOS expression"},
      {"measurement": "dose at which OXPHOS expression increased", "setting": "OXPHOS gene expression", "result": 2, "unit": "µM"},
      {"measurement": "nucOXPHOS Z", "setting": "nuOXPHOS transcripts; [8]", "result": 2.53},
      {"measurement": "ROS Zscore", "setting": "reactive oxygen species; [9]", "result": "−1.436"},
      {"measurement": "ROS levels", "setting": "reactive oxygen species", "result": "suppressing ROS levels"},
      {"measurement": "dose at which ROS levels decreased", "setting": "reactive oxygen species", "result": 2, "unit": "µM"}
    ]},
    {"compound": "CC[C@]1(O)C[C@@H]2CN(CCc3c([nH]c4ccccc34)[C@@](C(=O)OC)(c3cc4c(cc3OC)N(C)[C@H]3[C@@](O)(C(=O)OC)[C@H](OC(C)=O)[C@]5(CC)C=CCN6CC[C@]43[C@@H]65)C2)C1", "note": "[vinblastine sulfate, reference compound]", "values": [
      {"measurement": "mito-OXPHOS Z", "setting": "mtOXPHOS transcripts; [8]", "result": 1.64},
      {"measurement": "GEHTS_Zscore", "setting": "OXPHOS gene expression; [9]", "result": 3.171},
      {"measurement": "GEHTS_Zscore", "setting": "OXPHOS gene expression; [10]", "result": 3.171},
      {"measurement": "OXPHOS expression", "setting": "OXPHOS gene expression", "result": "boost OXPHOS expression"},
      {"measurement": "dose at which OXPHOS expression increased", "setting": "OXPHOS gene expression", "result": 2, "unit": "µM"},
      {"measurement": "nucOXPHOS Z", "setting": "nuOXPHOS transcripts; [8]", "result": 2.09},
      {"measurement": "cyt c", "setting": "cytochrome c; composite Z-score vs mock-treated (DMSO) wells, concentration of each compound in μM", "result": "−1.078"},
      {"measurement": "ROS Zscore", "setting": "reactive oxygen species; [9]", "result": "−1.327"},
      {"measurement": "ROS Zscore", "setting": "reactive oxygen species; [10]", "result": "−1.327"},
      {"measurement": "ROS levels", "setting": "reactive oxygen species", "result": "suppressing ROS levels"},
      {"measurement": "dose at which ROS levels decreased", "setting": "reactive oxygen species", "result": 2, "unit": "µM"}
    ]},
    {"compound": "C[C@H]1O[C@@H](n2cc(F)c(=O)[nH]c2=O)[C@H](O)[C@@H]1O", "note": "[5-fluoro-5′-deoxyuridine]", "values": [
      {"measurement": "mitoOX", "setting": "mtOXPHOS transcripts; [5]", "result": "−0.387"},
      {"measurement": "GE-HTS", "setting": "OXPHOS gene expression; composite Z-score vs DMSO", "result": "−0.336"},
      {"measurement": "ΔΨm", "setting": "[1]; [5]", "result": "−0.828"},
      {"measurement": "nucOX", "setting": "nuOXPHOS transcripts; [5]", "result": "−0.284"},
      {"measurement": "cyt c", "setting": "cytochrome c; [5]", "result": 0.338},
      {"measurement": "MTT", "setting": "[2]; [5]", "result": "−2.176"},
      {"measurement": "ROS", "setting": "reactive oxygen species; [5]", "result": 0.337}
    ]},
    {"compound": "CON", "note": "[methoxyamine]", "values": [
      {"measurement": "mitoOX", "setting": "mtOXPHOS transcripts; [3]", "result": "−1.494"},
      {"measurement": "GE-HTS", "setting": "OXPHOS gene expression; [4]", "result": "−1.274"},
      {"measurement": "ΔΨm", "setting": "[1]; [3]", "result": "−0.754"},
      {"measurement": "nucOX", "setting": "nuOXPHOS transcripts; [3]", "result": "−1.049"},
      {"measurement": "cyt c", "setting": "cytochrome c; [3]", "result": 0.749},
      {"measurement": "MTT", "setting": "[2]; [3]", "result": "−1.833"},
      {"measurement": "ROS", "setting": "reactive oxygen species; [3]", "result": 0.751}
    ]},
    {"compound": "O=c1[nH]cc(F)c(=O)[nH]1", "note": "[Fluorouracil, reference compound]", "values": [
      {"measurement": "mito-OXPHOS Z", "setting": "mtOXPHOS transcripts; [8]", "result": 1.55},
      {"measurement": "nucOXPHOS Z", "setting": "nuOXPHOS transcripts; [8]", "result": 1.50}
    ]},
    {"compound": "CO[C@H]1C=C[C@@]23c4cc5c(cc4CN(C[C@@H]2O)[C@H]3C1)OCO5", "note": "[Crinamine, reference compound]", "values": [
      {"measurement": "mito-OXPHOS Z", "setting": "mtOXPHOS transcripts; [8]", "result": "−2.89"},
      {"measurement": "nucOXPHOS Z", "setting": "nuOXPHOS transcripts; [8]", "result": 2.27}
    ]},
    {"compound": "Nc1cc(N2CCCCC2)nc(N)[n+]1[O-]", "note": "[Minoxidil, reference compound]", "values": [
      {"measurement": "mito-OXPHOS Z", "setting": "mtOXPHOS transcripts; [8]", "result": 1.37},
      {"measurement": "nucOXPHOS Z", "setting": "nuOXPHOS transcripts; [8]", "result": 2.38}
    ]}
  ]
}
